Data on twelve molecules can be found in US11021481B2, “Substituted isoindolin-1-ones and 2,3-dihydro-1h-pyrrolo[3,4-c]pyridin-1-ones as HPK1 antagonists” (Nimbus Saturn, Inc., priority 2019, dated 2021).

Where only a bound is given, the exact number is not on record here.

In this experiment the target is HPK1 (Homo sapiens (Human), UniProt Q92918). The experiment is described as follows: HPK1 biochemical enzyme assay (microfluidic mobility shift assay). As to conditions: 1.5 nM HPK1, ATP 1 mM final, 30 min preincubation, 60 min at RT, Caliper EZ Reader; read-out: HPK1 1000UMATP caliper IC50. The gist of the method: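 Mobility shift readout of HPK1 activity after a 60 min RT reaction with 1 mM ATP, 1 μM substrate and 5 mM MgCl2. Enzyme/substrate mix was first exposed to compounds for 30 min, using ten-point curves topping at 3 μM final.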
Chain of HPK1 (Q92918 whole entry): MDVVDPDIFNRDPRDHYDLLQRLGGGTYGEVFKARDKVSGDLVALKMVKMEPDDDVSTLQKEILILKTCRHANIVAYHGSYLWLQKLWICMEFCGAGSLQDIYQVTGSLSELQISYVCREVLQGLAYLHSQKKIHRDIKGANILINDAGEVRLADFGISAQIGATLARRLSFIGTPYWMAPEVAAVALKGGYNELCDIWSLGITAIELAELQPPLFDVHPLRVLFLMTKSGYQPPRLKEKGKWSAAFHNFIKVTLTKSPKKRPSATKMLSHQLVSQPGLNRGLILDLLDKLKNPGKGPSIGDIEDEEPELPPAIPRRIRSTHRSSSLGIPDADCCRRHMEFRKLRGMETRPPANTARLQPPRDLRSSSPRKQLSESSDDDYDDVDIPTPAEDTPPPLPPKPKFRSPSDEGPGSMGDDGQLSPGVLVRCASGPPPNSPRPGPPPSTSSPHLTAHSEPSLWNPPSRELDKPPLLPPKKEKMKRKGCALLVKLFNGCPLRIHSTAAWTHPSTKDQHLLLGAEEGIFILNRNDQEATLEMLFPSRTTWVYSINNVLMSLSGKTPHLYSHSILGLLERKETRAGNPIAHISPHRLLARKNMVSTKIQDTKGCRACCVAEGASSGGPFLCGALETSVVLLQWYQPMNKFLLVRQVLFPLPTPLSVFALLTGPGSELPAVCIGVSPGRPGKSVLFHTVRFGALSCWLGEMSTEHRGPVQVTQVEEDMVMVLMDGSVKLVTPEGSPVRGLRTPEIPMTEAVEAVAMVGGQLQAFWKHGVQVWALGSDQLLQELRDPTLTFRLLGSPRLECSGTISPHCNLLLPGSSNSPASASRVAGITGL
What is called IC50 is the concentration at which inhibition is half-maximal. Take `O=C1NCc2c(-c3cnc4cc(F)ccn34)ccc(Nc3ccc([C@@H]4CCOC4)c(CN4CCC(F)(F)C4)n3)c21` [I-718, (S)-7-((6-((3,3-difluoropyrro-lidin-1-yl)methyl)-5-(tetrahydrofuran-3-yl)pyridin-2-yl)amino)-4-(7-fluoroimidazo [1,2-a]pyridin-3-yl)isoindolin-1-one]: the IC50 is less than 100 nM.

Regarding `Cc1c[nH]c2nccc(-c3ncc(Nc4ccc(N5CCN(C)CC5)cn4)c4c3CNC4=O)c12` [I-19, 7-[[5-(4-methylpiperazin-1-yl)-2-pyridyl]amino]-4-(3-methyl-1H-pyrrolo[2,3-b]pyridin-4-yl)-2,3-dihydropyrrolo [3,4-c]pyridin-1-one], the IC50 is less than 100 nM.

As for `CN(CCO)Cc1nc(Nc2ccc(-c3cnc4cc(F)ccn34)c3c2C(=O)NC3)ccc1C1CCOC1` (stereo in doubt) [I-733, (S)-4-(7-fluoroimidazo [1,2-a]pyridin-3-yl)-7-(6-(((2-hydroxy-ethyl)(methyl)-amino)methyl)-5-(tetrahydrofuran-3-yl)pyridin-2-yl)amino)isoin-dolin-1-one], the IC50 is less than 100 nM.

On to `Cn1ccc2c(-c3ncc(Nc4ccc(N5CC6CCC(C5)N6)cn4)c4c3CNC4=O)ccnc21` [I-262, 7-((5-(3,8-diazabicyclo [3.2.1]octan-3-yl)pyridin-2-yl)amino)-4-(1-methyl-1H-pyrrolo[2,3-b]pyridin-4-yl)-2,3-dihydro-1H-pyrrolo[3,4-c]pyridin-1-Fone], for which the half-maximal inhibitory concentration (IC50) was less than 100 nM.

For `COCCN(C)Cc1nc(Nc2ccc(-c3cnc4cc(F)ccn34)c3c2C(=O)NC3)ccc1C1CCOC1` (stereo in doubt) [I-728, (S)-4-(7-fluoroimidazo [1,2-a]pyridin-3-yl)-7-(6-(((2-methoxyethyl) (methyl)-amino)methyl)-5-(tetrahydrofuran-3-yl)pyridin-2-yl)amino)isoin-dolin-1-one], the IC50 is less than 100 nM.

On to `O=C1NCc2c(-c3ccnn4ccnc34)ncc(Nc3ccc(N4CCC(O)CC4)cn3)c21` [I-565, 7-((5-(4-hydroxypiperidin-1-yl)pyridin-2-yl)amino)-4-(imidazo[1,2-b]pyridazin-8-yl)-2,3-dihydro-1H-pyrrolo[3,4-c]pyridin-1-one], for which the IC50 was more than 1000 nM.

With `CNC1CCN(c2ccc(Nc3cnc(-c4ccnc5c4ccn5C)c4c3C(=O)NC4)nc2)CC1(F)F` (stereo not drawn) [I-453, 7-[[5-[3,3-difluoro-4-(methylamino)-1-piperidyl]-2-pyridyl]amino]-4-(1-methylpyrrolo [2,3-b]pyridin-4-yl)-2,3-dihydropyrrolo [3,4-c]pyridin-1-one], the IC50 was less than 100 nM.

Take `CN(C)Cc1nc(Nc2ccc(-c3cnc4cc(F)ccn34)c3c2C(=O)NC3)ccc1[C@]1(O)CCOC1` [I-803, (R)-7-((6-((dimethylamino)-methyl)-5-(3-hydroxytetra-hydrofuran-3-yl)pyridin-2-yl)amino)-4-(7-fluoroimidazo [1,2-a]pyridin-3-yl)isoindolin-1-one]: the IC50 is less than 100 nM.

For the molecule `COc1ccc2[nH]cc(-c3ncc(Nc4ccc(N5CCN(C)CC5)cn4)c4c3CNC4=O)c2c1` [I-9, 4-(5-methoxy-1H-indol-3-yl)-7-[[5-(4-methylpiperazin-1-yl)-2-pyridyl]amino]-2,3-dihydropyrrolo [3,4-c]pyridin-1-one], the IC50 fell in the range of 100 to 1000 nM.

Turning to `O=C1NCc2c(-c3cnc4cc(F)ccn34)ccc(Nc3ccc(N4CC[C@H](F)[C@H](O)C4)cn3)c21` [I-359, 7-((5-((3R,4S)-4-fluoro-3-hydroxy-piperidin-1-yl)pyridin-2-yl)amino)-4-(7-fluoroimidazo [1,2-a]pyridin-3-yl)isoindolin-1-one], the IC50 was less than 100 nM.

For the molecule `CN(C)C(C)(C)C1CCCN(c2ccc(Nc3ccc(-c4cnc5cc(F)ccn45)c4c3C(=O)NC4)nc2)C1` (stereo not drawn) [I-582, 7-((5-(3-(2-(dimethylami-no)propan-2-yl)piperidin-1-yl)pyridin-2-yl)amino)-4-(7-fluoroimidazo [1,2-a]pyridin-3-yl)isoindolin-1-one], the IC50 was less than 100 nM.

Turning to `Cc1cc2c(-c3ncc(Nc4ccc(N5CCC[C@H](C(C)(C)O)C5)cn4)c4c3CNC4=O)ccnc2n1C` [I-229], the IC50 was less than 100 nM.
